For orientation: IC50 means the point on the concentration scale where inhibition reaches its midpoint.

The structures appear in SMILES notation. Where two headings read alike, the source gives them in different places.

This note sets out measurements from US6774143B1, “Method for treating cells resistant to antineoplastic agents” (Novartis AG, priority 2003, dated 2004).

One experiment concerns Raf-1. Nature of the experiment: Western blot, Raf-1 phosphorylation. It is filed as cell-based, human. How it is done:
Cells are plated at a density of 1.5×10^6 cells per 100 mm plate. The next day cells are treated with vehicle control (0.1% DMSO) or test compound for 24 h. Cells are harvested by washing monolayers twice with PBS, then lysing with 300 ul of lysis buffer[20 mM Tris (pH 8.0), […], 100 mM NaCl, 0.5% NP40, 0.0125% DOC, 2.5% glycerol, 1 mM vanadate, 25 mM sodium fluoride and protease inhibitor cocktail (1:500 dilution, Sigma)]. Lysates were spun at 12,000× g and the supernatant transferred to a new tube. Protein concentration of the lysates is determined using BCA protein assay Reagent (Pierce). Samples (75 μg) are resolved by SDS-PAGE on a 7.5% or 14% tris-glycine gel for Raf-1 and Bcl-xL, respectively, and transferred to nitrocellulose. Immunodetection is performed as described by Amersham Vistra Fluorescence Western blotting Kit directions with the following modifications: the membrane is blocked with 5% milk (Carnation Non-Fat Dry Milk) in buffer containing 20 mM Tris-HCl (pH=7.4), 100 mM NaCl, and 0.2% Tween 20 (TBST) overnight and is subsequently incubated for 2 h with primary antibody (Santa Cruz C-12 for Raf-1 and Santa Cruz H-62 for Bcl-xL), followed by fluorescein-linked anti-rabbit Ig in 5% milk and anti-fluorescein alkaline phosphatase conjugate in TBST at 1:500 and 1:2000 dilutions, respectively. A Storm 860 (Molecular Dynamics) is used to detect fluorescent product according to the manufacturer's instructions.
(In general: In western blotting, separated proteins are transferred to a membrane and probed.)

The next experiment relates to 1A9 cells. Kind of experiment: Antiproliferative assay (MTS). In kind it is cell-based. The conditions noted are these: Homo sapiens, 1A9, 72 h, single value given. How it is done: A549, a human non-small cell lung carcinoma and MDA-MB-435, a human breast carcinoma, used in this study are obtained from the American Type Culture Collection (ATCC, Rockville, Md., USA). MDA-MB-435 cells are maintained in MEM containing 10% FBS, 1% sodium pyruvate, 1% MEM non-essential amino acids, and 15 mM HEPES (pH=7.4). A549 cells are maintained in RPMI 1640 containing 10% FBS. 1A9, a single-cell clone of the human ovarian carcinoma cell line A2780 and PTX22, the paclitaxel-resistant subline, used in this stdy are obtained from M. Wartman (Novartis Pharmauticals). 1A9 cells and PTX22 cells are maintained in RPMI 1640 supplemented with 10% FBS. PTX22 maintenance media also contained 15 ng/mL paclitaxel and 5 μg/mL verapamil. Drug is removed from the media for 5-7 days before use in an experiment. […]
Cell lines are trypsinized and counted using a Coulter counter. […] Initial cell density for each cell line is measured on day 1 by adding 10 μL MTS mixture (see below), incubating for 4 h and recording absorbance at 490 nm (A490). Two or three days after test compound addition, 10 μL/well of MTS mixture is added to the test plates and A490 was read 4 h later. A490 values for wells containing cells are corrected for media absorbance, then normalized to initial density readings to determine percent net growth. Percent net growth is calculated as (A490+drug−A490 initial)/(A490—drug—A490 initial). […]

Setting [1] is: MDA-MB-435 cells, 24 hour treatment.

In the case of `C=C/C=C\[C@H](C)[C@H](OC(N)=O)[C@@H](C)[C@H](O)[C@@H](C)C/C(C)=C\[C@H](C)[C@@H](O)[C@@H](C)/C=C\[C@@H](O)C[C@@H]1OC(=O)[C@H](C)[C@@H](O)[C@H]1C` [discodermolide, (+)-Discodermolide], the Raf-1 phosphorylation result in the experiment on Raf-1 (1A9 parental cells) was “phosphorylated”; in the experiment on Raf-1 (A549 cells, 24 hour treatment), “phosphorylated”; with Raf-1 (setting [1]), “phosphorylated”; in the experiment on Raf-1 (PTX-22 cells) it was “phosphorylated”. Further, in the experiment with 1A9 cells (read-out: 72 hour IC50, 1A9 cells), the IC50 was 25 nM.
For the molecule `CC(=O)O[C@H]1C(=O)[C@@]2(C)[C@H]([C@H](OC(=O)c3ccccc3)[C@]3(O)C[C@H](OC(=O)[C@H](O)[C@@H](NC(=O)c4ccccc4)c4ccccc4)C(C)=C1C3(C)C)[C@]1(OC(C)=O)CO[C@@H]1C[C@@H]2O` [paclitaxel, reference compound], the Raf-1 phosphorylation result in the experiment with Raf-1 (1A9 parental cells) is listed as “phosphorylated”; in the experiment on Raf-1 (A549 cells, 24 hour treatment) it was “phosphorylated”; in the experiment with Raf-1 (setting [1]), “phosphorylated”; with Raf-1 (PTX-22 cells), “not observed”. In addition, the IC50 in the experiment on 1A9 cells (1A9 cells, read-out: 72 hour IC50) worked out at 6 nM.
